{"source": "patent US8980919B2", "about": "“Combination of a carbostyril and carnitine” (Otsuka Pharmaceutical Co., Ltd., priority 2008, dated 2015)", "system": "chronic cerebral ischemia model rats", "test": "Immunohistological evaluation of brain in chronic cerebral ischemia model rats (ligation of both carotid arteries)", "format": "in vivo, rat", "conditions": "for number of GST-pi positive oligodendrocyte in the callosum: after LBCCA, L-carnitine 600 mg/kg/day, cilostazol 50 mg/kg/day, FIG. 2; for number of GST-pi positive oligodendrocyte in the callosum / 8-OHdG positive cell (cell dysfunction by peroxidation): vs vehicle; for 8-OHdG positive cell (cell dysfunction by peroxidation): day 7 to day 28 after LBCCA, FIG. 3; for 8-OHdG positive cell (cell dysfunction by peroxidation) / number of ss-DNA positive cells (marker of apoptosis) / HNE staining positive cells (peroxidative metabolism): P<0.01; for number of ss-DNA positive cells (marker of apoptosis) / HNE staining positive cells (peroxidative metabolism): vs vehicle group; for number of ss-DNA positive cells (marker of apoptosis): FIG. 5; for HNE staining positive cells (peroxidative metabolism): FIG. 4", "protocol": "The cerebroprotective action of cilostazol for inflammatory reaction due to oxidative stress and glial cell was studied using chronic cerebral ischemia model rats as cerebrovascular dementia model animals. Using Wister rats (male, aged 7-8 weeks, body weights of 150-200 g), chronic cerebral ischemia model rats are prepared according to the method of […] et al. (Acta Neuropathol (Berl). 87, 484-492, 1993), i.e. by double-ligating both […] of the rats. As a physiological evaluation, body temperature and body fluid of the rats before/after the preparation are measured, and the cerebral blood flow thereof is analyzed with a Doppler device. To the rats of each administration group of vehicle, L-carnitine, cilostazol, and L-carnitine/cilostazol combination, each defined administration is done every day by natural ingestion from the day when the preparation of ischemia was completed to the final day for the experimental evaluation. […] After brain parenchyma of the rats is sliced in 20 μm, HE and KB stainings and several immunostainings are carried out. The dosage of each trial is 600 mg/kg/day for L-carnitine and 50 mg/kg/day for cilostazol. Regarding glial cell, the astrocyte is evaluated with an antibody for GFAP, the microglia is evaluated with an antibody for Iba-1, and the oligodendrocyte is evaluated with an antibody for glutathione S-transferase p^+ (GST-pi). And, the oxidative stress is evaluated with an antibody for anti 4-hydroxy-2-nonenal (HNE)."}
{"smiles": "C[N+](C)(C)C[C@H](O)CC(=O)[O-]", "note": "[carnitine, L-carnitine]", "values": [{"measurement": "number of GST-pi positive oligodendrocyte in the callosum", "result": "increased more than that of the vehicle group"}, {"measurement": "8-OHdG positive cell (cell dysfunction by peroxidation)", "result": "significantly decreased"}, {"measurement": "number of ss-DNA positive cells (marker of apoptosis)", "setting": "day 14", "result": "significantly decreased compared with the vehicle group"}, {"measurement": "HNE staining positive cells (peroxidative metabolism)", "result": "tended to significantly decrease compared with the vehicle group"}]}
{"smiles": "O=C1CCc2cc(OCCCCc3nnnn3C3CCCCC3)ccc2N1", "note": "[cilostazol, 6-[4-(1-cyclohexyl-1H-tetrazol-5-yl)butoxy]-3,4-dihydrocarbostyril]", "values": [{"measurement": "number of GST-pi positive oligodendrocyte in the callosum", "result": "increased more than that of the vehicle group"}, {"measurement": "8-OHdG positive cell (cell dysfunction by peroxidation)", "result": "significantly decreased"}, {"measurement": "number of ss-DNA positive cells (marker of apoptosis)", "setting": "days 14, 21 and 28", "result": "significantly decreased compared with the vehicle group"}, {"measurement": "HNE staining positive cells (peroxidative metabolism)", "result": "tended to significantly decrease compared with the vehicle group"}]}
